Results from PubChem BioAssay (NCI).
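Tested at 5 concentrations; 48 h exposure; 96-well plates; endpoints linearly interpolated, else capped at highest concentration. Abbreviation: GI50, concentration required for 50% inhibition of growth. The concentration for full growth arrest is given as TGI.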

Experiments:
Assay in all cases: NCI-60 cell line screen, 48 h
EKVX NSCLC = system: EKVX NSCLC
HS 578T breast = system: HS 578T breast
K-562 leukemia = system: K-562 leukemia
KM12 colon = system: KM12 colon
MOLT-4 leukemia = system: MOLT-4 leukemia
OVCAR-3 ovarian = system: OVCAR-3 ovarian
SK-MEL-5 melanoma = system: SK-MEL-5 melanoma
SNB-75 CNS = system: SNB-75 CNS
UO-31 renal = system: UO-31 renal
NCI-H460 lung = system: NCI-H460 lung

For Fc1cc(Nc2ccc3c(OCCCN4CCOCC4)cccc3n2)ccc1Cl, which GI50 (EKVX NSCLC) is on record?
The GI50 was 2.37 µM.

And the TGI (EKVX NSCLC)?
Its TGI is 6.2 µM.

What about the GI50 (HS 578T breast) of the same molecule?
The GI50 was 2.19 µM.

And the TGI (HS 578T breast)?
The TGI was 6 µM.

And the GI50 (K-562 leukemia)?
The GI50 was 1.91 µM.

What about the TGI (K-562 leukemia) of the same molecule?
Its TGI is 4.38 µM.

What about the GI50 (KM12 colon) of the same molecule?
Its GI50 is 2.3 µM.

What about the TGI (KM12 colon) of the same molecule?
Its TGI is 5.46 µM.

And the GI50 (MOLT-4 leukemia)?
Its GI50 is 1.68 µM.

What about the TGI (MOLT-4 leukemia) of the same molecule?
The TGI was 3.88 µM.

What about the GI50 (OVCAR-3 ovarian) of the same molecule?
Its GI50 is 3.08 µM.

And the TGI (OVCAR-3 ovarian)?
The TGI was 10.1 µM.

And the GI50 (SK-MEL-5 melanoma)?
Its GI50 is 2.1 µM.

What about the TGI (SK-MEL-5 melanoma) of the same molecule?
Its TGI is 4.39 µM.

And the GI50 (SNB-75 CNS)?
The GI50 was 1.86 µM.

What about the TGI (SNB-75 CNS) of the same molecule?
The TGI was 6.2 µM.

And the GI50 (UO-31 renal)?
The GI50 was 1.65 µM.

What about the TGI (UO-31 renal) of the same molecule?
Its TGI is 4.11 µM.

Which results are given for ClCc1ccc(Cn2cnc3ncnc(Cl)c32)cc1?
GI50 (EKVX NSCLC): 2.25 µM; TGI (EKVX NSCLC): 4.45 µM; GI50 (HS 578T breast): 1.74 µM; TGI (HS 578T breast): 4.3 µM; GI50 (K-562 leukemia): 3.03 µM; TGI (K-562 leukemia): > 100 µM; GI50 (KM12 colon): 1.66 µM; TGI (KM12 colon): 3.48 µM; GI50 (NCI-H460 lung): 1.78 µM; TGI (NCI-H460 lung): 4.31 µM; GI50 (OVCAR-3 ovarian): 1.8 µM; TGI (OVCAR-3 ovarian): 3.39 µM; GI50 (SK-MEL-5 melanoma): 2.82 µM; TGI (SK-MEL-5 melanoma): 12.1 µM; GI50 (UO-31 renal): 4.82 µM; TGI (UO-31 renal): 66.7 µM

Which GI50 (EKVX NSCLC) does the source give for CN(C)c1ccc(/C=N/Nc2ccc(-c3nc4ccccc4[nH]3)cc2)cc1 here?
Its GI50 is 17.6 µM.

What about the TGI (EKVX NSCLC) of the same molecule?
Its TGI is over 50 µM.

What about the GI50 (HS 578T breast) of the same molecule?
The GI50 was 5.61 µM.

And the TGI (HS 578T breast)?
The TGI was 23.6 µM.

And the GI50 (K-562 leukemia)?
Its GI50 is 2.86 µM.

What about the TGI (K-562 leukemia) of the same molecule?
Its TGI is 16.3 µM.

And the GI50 (KM12 colon)?
Its GI50 is 9.81 µM.

What about the TGI (KM12 colon) of the same molecule?
The TGI was over 50 µM.

What about the GI50 (NCI-H460 lung) of the same molecule?
The GI50 was 9.33 µM.

And the TGI (NCI-H460 lung)?
The TGI was 20.4 µM.

And the GI50 (OVCAR-3 ovarian)?
The GI50 was 31.7 µM.

What about the TGI (OVCAR-3 ovarian) of the same molecule?
The TGI was over 50 µM.

And the GI50 (SK-MEL-5 melanoma)?
The GI50 was 2.03 µM.

And the TGI (SK-MEL-5 melanoma)?
Its TGI is 9.92 µM.

And the GI50 (UO-31 renal)?
The GI50 was 7.44 µM.

What about the TGI (UO-31 renal) of the same molecule?
Its TGI is 23.8 µM.

Which results are given for C1CCN2CC34CC(CC5CCCN(C6CCCC3N6)C54)C2C1 (stereo not drawn)?
TGI (EKVX NSCLC): > 100 µM; TGI (HS 578T breast): > 100 µM; TGI (K-562 leukemia): > 100 µM; TGI (KM12 colon): > 100 µM; TGI (MOLT-4 leukemia): > 100 µM; TGI (NCI-H460 lung): > 100 µM; TGI (OVCAR-3 ovarian): > 100 µM; TGI (SK-MEL-5 melanoma): > 100 µM; TGI (SNB-75 CNS): > 100 µM

Which GI50 (EKVX NSCLC) does the source give for COCCOCCOCCOCCOc1ccc2c(c1)C(=O)c1nc3ncccc3c(=O)n1-2 here?
Its GI50 is 1.87 µM.

And the TGI (EKVX NSCLC)?
The TGI was 5.28 µM.

What about the GI50 (HS 578T breast) of the same molecule?
The GI50 was 1.09 µM.

What about the TGI (HS 578T breast) of the same molecule?
Its TGI is 4.02 µM.

And the GI50 (KM12 colon)?
Its GI50 is 1.22 µM.

And the TGI (KM12 colon)?
Its TGI is 2.71 µM.

What about the GI50 (MOLT-4 leukemia) of the same molecule?
The GI50 was 3.61 µM.

What about the TGI (MOLT-4 leukemia) of the same molecule?
The TGI was over 100 µM.

What about the GI50 (NCI-H460 lung) of the same molecule?
Its GI50 is 0.4 µM.

What about the TGI (NCI-H460 lung) of the same molecule?
Its TGI is 1.39 µM.

What about the GI50 (OVCAR-3 ovarian) of the same molecule?
The GI50 was 0.969 µM.

What about the TGI (OVCAR-3 ovarian) of the same molecule?
The TGI was 3.39 µM.

And the GI50 (SK-MEL-5 melanoma)?
The GI50 was 0.158 µM.

What about the TGI (SK-MEL-5 melanoma) of the same molecule?
The TGI was 0.312 µM.

And the GI50 (SNB-75 CNS)?
Its GI50 is 2.07 µM.

What about the TGI (SNB-75 CNS) of the same molecule?
The TGI was 3.65 µM.

What about the GI50 (UO-31 renal) of the same molecule?
The GI50 was 1.53 µM.

And the TGI (UO-31 renal)?
Its TGI is 6.21 µM.

Cc1ccc(C)c(NC(=O)CCc2n[nH]c(=S)o2)c1 was tested. Which TGI (EKVX NSCLC) did it give?
Its TGI is over 100 µM.

And the TGI (K-562 leukemia)?
The TGI was over 100 µM.

And the TGI (KM12 colon)?
The TGI was over 100 µM.

And the TGI (MOLT-4 leukemia)?
The TGI was over 100 µM.

What about the TGI (NCI-H460 lung) of the same molecule?
Its TGI is over 100 µM.

What about the TGI (OVCAR-3 ovarian) of the same molecule?
The TGI was over 100 µM.

What about the TGI (SK-MEL-5 melanoma) of the same molecule?
Its TGI is over 100 µM.

And the TGI (SNB-75 CNS)?
The TGI was over 100 µM.

And the TGI (UO-31 renal)?
Its TGI is over 100 µM.

For O=C(Nc1ccc(-c2nc3ccc(NC(=O)c4ccc(Cl)cc4)cc3[nH]2)cc1)c1ccc(Cl)cc1, which GI50 (HS 578T breast) is on record?
The GI50 was 0.0559 µM.

And the TGI (HS 578T breast)?
The TGI was 7.9 µM.

What about the GI50 (K-562 leukemia) of the same molecule?
Its GI50 is 0.487 µM.

What about the TGI (K-562 leukemia) of the same molecule?
The TGI was 4.57 µM.

What about the GI50 (KM12 colon) of the same molecule?
The GI50 was 2.16 µM.

What about the TGI (KM12 colon) of the same molecule?
Its TGI is 5.38 µM.

What about the GI50 (MOLT-4 leukemia) of the same molecule?
Its GI50 is 0.901 µM.

And the TGI (MOLT-4 leukemia)?
Its TGI is 8.31 µM.

What about the GI50 (NCI-H460 lung) of the same molecule?
Its GI50 is 1.79 µM.

What about the TGI (NCI-H460 lung) of the same molecule?
Its TGI is 4.03 µM.

And the GI50 (OVCAR-3 ovarian)?
The GI50 was 3.31 µM.

And the TGI (OVCAR-3 ovarian)?
The TGI was 11.4 µM.

And the GI50 (SK-MEL-5 melanoma)?
Its GI50 is 3.53 µM.

What about the TGI (SK-MEL-5 melanoma) of the same molecule?
The TGI was 14.4 µM.

What about the GI50 (SNB-75 CNS) of the same molecule?
The GI50 was 1.52 µM.

And the TGI (SNB-75 CNS)?
The TGI was 7.93 µM.

What about the GI50 (UO-31 renal) of the same molecule?
Its GI50 is 8.19 µM.

What about the TGI (UO-31 renal) of the same molecule?
Its TGI is 20 µM.

With Cc1ccc(NC(=O)CCC(=O)C(C#N)c2ccc(Cl)cc2)cc1C (stereo not drawn) as the molecule, how does the TGI (EKVX NSCLC) read?
The TGI was over 100 µM.

And the TGI (K-562 leukemia)?
The TGI was over 100 µM.

What about the TGI (KM12 colon) of the same molecule?
The TGI was over 100 µM.

And the TGI (MOLT-4 leukemia)?
The TGI was over 100 µM.

What about the TGI (NCI-H460 lung) of the same molecule?
The TGI was over 100 µM.

What about the TGI (OVCAR-3 ovarian) of the same molecule?
The TGI was over 100 µM.

And the TGI (SK-MEL-5 melanoma)?
The TGI was over 100 µM.

What about the TGI (SNB-75 CNS) of the same molecule?
The TGI was over 100 µM.

And the TGI (UO-31 renal)?
Its TGI is over 100 µM.
